Laboratory results: ChEMBL document CHEMBL1144958 (Bioorg Med Chem Lett, 2003)

Key:
[1] = tested on: HEK293; assay: Binding affinity towards nicotinic acetylcholine receptor alpha7 - 5-hydroxytryptamine 3 receptor was determined in transfected HEK cells (alpha7) using [125I]-alpha-BgTx as radioligand; assay type: cell-based
[2] = target: Neuronal acetylcholine receptor; alpha4/beta2 (Rattus norvegicus, UniProt P09483+P12390); assay: Binding affinity towards alpha4-beta2 nicotinic receptor was determined in rat brain membrane using [3H]cytisine as radioligand; assay type: cell membranes
Sequence of Neuronal acetylcholine receptor; alpha4/beta2 (P09483 whole entry): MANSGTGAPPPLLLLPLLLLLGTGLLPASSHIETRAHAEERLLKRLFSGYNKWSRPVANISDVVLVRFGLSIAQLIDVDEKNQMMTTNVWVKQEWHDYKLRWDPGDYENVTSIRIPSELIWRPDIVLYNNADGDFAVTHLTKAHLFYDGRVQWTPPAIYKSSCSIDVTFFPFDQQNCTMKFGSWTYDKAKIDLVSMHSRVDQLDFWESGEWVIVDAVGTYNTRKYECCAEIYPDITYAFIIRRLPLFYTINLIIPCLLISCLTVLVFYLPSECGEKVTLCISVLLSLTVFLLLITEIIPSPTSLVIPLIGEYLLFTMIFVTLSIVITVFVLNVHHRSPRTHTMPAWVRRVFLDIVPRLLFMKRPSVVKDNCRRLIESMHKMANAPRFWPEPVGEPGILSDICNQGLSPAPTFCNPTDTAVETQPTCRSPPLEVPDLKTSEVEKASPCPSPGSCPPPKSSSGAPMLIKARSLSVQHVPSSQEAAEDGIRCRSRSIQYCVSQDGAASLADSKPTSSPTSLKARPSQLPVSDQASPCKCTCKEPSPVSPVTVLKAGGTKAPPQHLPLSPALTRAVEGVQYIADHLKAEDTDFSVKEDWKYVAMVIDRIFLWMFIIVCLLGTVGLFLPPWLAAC
Sequence of Neuronal acetylcholine receptor; alpha4/beta2 (P12390 whole entry): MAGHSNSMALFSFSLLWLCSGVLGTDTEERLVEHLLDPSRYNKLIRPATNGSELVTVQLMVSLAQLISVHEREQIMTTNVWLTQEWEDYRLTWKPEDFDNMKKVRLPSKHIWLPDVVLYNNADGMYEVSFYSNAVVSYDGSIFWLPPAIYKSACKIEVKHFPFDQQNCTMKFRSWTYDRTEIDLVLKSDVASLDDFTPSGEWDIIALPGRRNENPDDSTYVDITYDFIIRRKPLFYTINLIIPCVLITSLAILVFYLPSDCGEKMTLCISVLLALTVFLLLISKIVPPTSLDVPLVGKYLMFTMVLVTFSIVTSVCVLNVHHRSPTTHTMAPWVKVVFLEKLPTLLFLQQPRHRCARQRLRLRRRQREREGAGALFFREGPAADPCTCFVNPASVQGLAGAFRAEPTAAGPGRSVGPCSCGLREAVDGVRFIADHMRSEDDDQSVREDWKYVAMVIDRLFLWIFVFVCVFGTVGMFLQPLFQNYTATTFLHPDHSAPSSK

Q: For Clc1ccc(C2CC3CCC2N3)cn1 (configuration not stated), which binding affinity [1] is on record?
A: 0.075 µM

Q: What does the source list for Clc1ncc(C2CC3CCC2N3)cn1 (configuration not stated)?
A: Ki [2]: 0.31 nM; binding affinity [1]: 0.76 µM

Q: Which results are given for O=C(CCl)Nc1ccc(C2CC3CCC2N3)cn1 (configuration not stated)?
A: Ki [2]: 16.3 nM; binding affinity [1]: 23 µM

Q: COC(=O)Nc1ccc(C2CC3CCC2N3)cn1 (configuration not stated) was tested. Which Ki [2] did it give?
A: 8100 nM

Q: And the binding affinity [1]?
A: > 1000 µM
